Data taken from ChEMBL document CHEMBL1926625, “Identification of benzoxazin-3-one derivatives as novel, potent, and selective nonsteroidal mineralocorticoid receptor antagonists” (J Med Chem, 2011).

Assays:
[1] = Clearance in Sprague-Dawley rat at 3 mg/kg, iv and 10 mg/kg, po; type: ADME, organism-based; conditions: in vivo
[2] = Mean residence time in Sprague-Dawley rat at 10 mg/kg, po; type: ADME, organism-based; set-up: dose 10 mg/kg, route oral; conditions: in vivo
[3] = target: T1, Mineralocorticoid receptor (Homo sapiens, UniProt P08235)
T1 sequence (P08235 whole entry): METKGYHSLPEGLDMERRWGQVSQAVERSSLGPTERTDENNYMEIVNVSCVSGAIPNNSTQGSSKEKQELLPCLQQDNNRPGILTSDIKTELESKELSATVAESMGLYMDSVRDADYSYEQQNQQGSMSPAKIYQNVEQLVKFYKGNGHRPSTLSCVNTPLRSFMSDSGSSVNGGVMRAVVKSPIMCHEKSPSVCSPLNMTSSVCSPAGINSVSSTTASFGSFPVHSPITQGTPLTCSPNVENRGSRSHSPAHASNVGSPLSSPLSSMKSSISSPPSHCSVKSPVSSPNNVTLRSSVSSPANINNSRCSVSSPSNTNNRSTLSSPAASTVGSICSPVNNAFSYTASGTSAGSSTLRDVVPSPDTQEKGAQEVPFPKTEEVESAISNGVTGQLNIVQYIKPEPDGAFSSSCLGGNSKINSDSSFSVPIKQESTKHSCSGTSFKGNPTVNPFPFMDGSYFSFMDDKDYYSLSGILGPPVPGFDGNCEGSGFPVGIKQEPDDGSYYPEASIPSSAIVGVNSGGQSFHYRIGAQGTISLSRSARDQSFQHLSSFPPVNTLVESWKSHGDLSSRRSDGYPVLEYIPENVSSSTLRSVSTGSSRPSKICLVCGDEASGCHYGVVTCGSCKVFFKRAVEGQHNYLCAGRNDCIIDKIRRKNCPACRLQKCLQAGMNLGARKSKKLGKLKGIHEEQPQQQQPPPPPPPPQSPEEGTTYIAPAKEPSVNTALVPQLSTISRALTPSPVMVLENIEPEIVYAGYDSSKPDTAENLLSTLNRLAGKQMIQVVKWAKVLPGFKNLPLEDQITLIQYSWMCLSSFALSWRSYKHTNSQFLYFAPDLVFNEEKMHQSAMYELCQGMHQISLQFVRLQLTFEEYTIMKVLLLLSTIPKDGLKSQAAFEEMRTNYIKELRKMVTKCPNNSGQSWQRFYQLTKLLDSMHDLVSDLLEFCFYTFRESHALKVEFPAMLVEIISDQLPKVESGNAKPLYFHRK
Description: Antagonist activity at human MR transfected in human COS1 cells after 1 day by luciferase reporter gene assay

[4] = target: T1, Mineralocorticoid receptor; test: biochemical
Description: Displacement of [3H]aldosterone from cytosolic human MR expressed in HEK293 cells after 16 hrs by scintillation counting

[5] = Bioavailability in Sprague-Dawley rat at 3 mg/kg, iv and 10 mg/kg, po; type: ADME, organism-based; conditions: in vivo
Androgen receptor = target: T2, Androgen receptor (Homo sapiens, UniProt P10275); test: Displacement of [3H]testosterone from AR
T2 sequence (P10275 whole entry): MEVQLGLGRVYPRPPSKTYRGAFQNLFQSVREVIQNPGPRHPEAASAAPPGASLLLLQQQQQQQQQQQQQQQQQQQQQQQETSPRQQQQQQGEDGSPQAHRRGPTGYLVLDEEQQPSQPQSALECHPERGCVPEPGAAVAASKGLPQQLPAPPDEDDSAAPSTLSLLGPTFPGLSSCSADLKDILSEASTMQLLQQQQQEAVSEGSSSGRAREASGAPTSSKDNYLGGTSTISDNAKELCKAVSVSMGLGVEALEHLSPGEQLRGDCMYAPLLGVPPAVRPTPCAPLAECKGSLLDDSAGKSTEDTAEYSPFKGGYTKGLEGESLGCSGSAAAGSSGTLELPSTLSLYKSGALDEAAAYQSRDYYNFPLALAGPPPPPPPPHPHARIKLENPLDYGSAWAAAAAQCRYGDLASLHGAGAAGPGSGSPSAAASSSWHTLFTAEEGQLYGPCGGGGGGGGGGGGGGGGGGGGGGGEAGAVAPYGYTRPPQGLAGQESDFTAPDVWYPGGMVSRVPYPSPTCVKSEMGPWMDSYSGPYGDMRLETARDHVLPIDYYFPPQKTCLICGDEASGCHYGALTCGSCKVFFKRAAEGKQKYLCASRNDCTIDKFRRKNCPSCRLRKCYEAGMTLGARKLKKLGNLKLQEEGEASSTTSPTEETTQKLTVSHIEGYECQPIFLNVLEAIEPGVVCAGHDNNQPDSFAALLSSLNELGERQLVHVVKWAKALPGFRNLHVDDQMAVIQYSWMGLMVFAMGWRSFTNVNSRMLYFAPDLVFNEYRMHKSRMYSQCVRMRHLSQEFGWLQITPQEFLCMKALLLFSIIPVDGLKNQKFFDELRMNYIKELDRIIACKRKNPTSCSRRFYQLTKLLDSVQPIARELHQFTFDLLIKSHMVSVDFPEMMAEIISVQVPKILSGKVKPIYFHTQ

[6] = Volume of distribution at steady state in Sprague-Dawley rat at 3 mg/kg, iv and 10 mg/kg, po; type: ADME, organism-based; conditions: in vivo, read-out: Vdss
Glucocorticoid receptor = target: T3, Glucocorticoid receptor (Homo sapiens, UniProt P04150); test: Displacement of [3H]dexomethasone from GR
T3 sequence (P04150 whole entry): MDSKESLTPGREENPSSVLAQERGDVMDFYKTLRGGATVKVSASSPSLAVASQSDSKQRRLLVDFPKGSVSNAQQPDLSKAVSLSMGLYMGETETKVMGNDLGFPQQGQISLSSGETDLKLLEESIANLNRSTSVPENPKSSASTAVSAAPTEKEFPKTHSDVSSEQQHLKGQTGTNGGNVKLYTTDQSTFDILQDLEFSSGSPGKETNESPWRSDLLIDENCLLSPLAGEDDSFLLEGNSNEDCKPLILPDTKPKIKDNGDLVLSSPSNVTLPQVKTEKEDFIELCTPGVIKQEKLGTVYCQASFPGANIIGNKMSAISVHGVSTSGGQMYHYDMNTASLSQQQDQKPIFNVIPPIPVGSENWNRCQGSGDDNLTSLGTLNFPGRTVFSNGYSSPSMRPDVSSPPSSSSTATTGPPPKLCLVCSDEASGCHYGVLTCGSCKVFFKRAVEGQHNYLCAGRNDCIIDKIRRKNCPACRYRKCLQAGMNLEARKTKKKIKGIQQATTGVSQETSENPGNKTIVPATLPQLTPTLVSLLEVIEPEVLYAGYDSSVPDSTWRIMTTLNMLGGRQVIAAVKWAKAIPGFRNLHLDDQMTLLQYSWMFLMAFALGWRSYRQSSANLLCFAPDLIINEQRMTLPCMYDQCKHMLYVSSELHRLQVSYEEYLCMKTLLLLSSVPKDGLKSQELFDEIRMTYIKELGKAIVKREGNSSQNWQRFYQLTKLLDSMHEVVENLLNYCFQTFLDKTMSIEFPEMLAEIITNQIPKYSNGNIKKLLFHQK

clearance [1]: 22.1 mL/min/kg | MRT [2]: 4.39 h | IC50 [3]: 0.043 µM | IC50 [4]: 0.041 µM | bioavailability [5]: 50.7% | IC50 (Androgen receptor): > 10 µM | Vd [6]: 4.63 L/kg | IC50 (Glucocorticoid receptor): 1.8 µM
SMILES: Cc1cc(F)ccc1-n1nc(C(F)(F)F)cc1-c1ccc2c(c1)NC(=O)CO2
